The source of these data is patent publication US6465523B1, “4-substituted-3-substituted-amino-cyclobut-3-ene-1,2-diones and analogs thereof as novel potassium channel openers” (American Home Products, priority 1998, dated 2002).

The subject of series [1] is Bladder Tissue. The series can be described thus: Smooth muscle (bladder) relaxing activity: inhibition of KCl-enhanced contractile activity of isolated rat bladder strips. It counts as cell-based, Sprague-Dawley rats. The following applies: for IC50 / inhibition at 30 µM / Bladder Tissue, I = percent inhibition of contractile activity: rat bladder strips, additional 15 mM KCl; for IC50: 50% inhibition of pre-drug contractile activity; for Ratio Aorta IC50 / Bladder IC50: selectivity for bladder over aorta tissue, rat; for inhibition at 30 µM / Bladder Tissue, I = percent inhibition of contractile activity: percent inhibition at 30 μM (footnote *); for inhibition at 30 µM: read-out: Bladder Tissue, I = percent inhibition of contractile activity. The protocol: The smooth muscle (bladder) relaxing activity of the compounds of this invention was established in accordance with standard pharmaceutically accepted test procedures with representative compounds as follows:
Sprague-Dawley rats (150-200 g) are rendered unconscious by CO2 asphyxiation and then euthanized by cervical dislocation. The bladder is removed into warm (37° C.) physiological salt solution (PSS) of the following composition (mM): NaCl, 118.4; KCl, 4.7; CaCl2, 2.5; […]; NaHCO3, 24.9; KH2PO4, 1.2; glucose, 11.1; EDTA, 0.023; gassed with […]; pH 7.4. The bladder is opened and then cut into strips 1-2 mm in width and 7-10 mm in length. The strips are subsequently suspended in a 10 mL tissue bath under an initial resting tension of 1.5 g. The strips are held in place by two surgical clips one of which is attached to a fixed hook while the other is attached to an isometric force transducer. […] The carbachol is then washed out and the tissue allowed to relax to its resting level of activity. Following a further 30 min. period of recovery an additional 15 mM KCl are introduced into the tissue bath. This increase in KCl concentration results in a large increase in the amplitude of spontaneous contractions (and initiation of contractions in previously quiescent strips) superimposed upon a small increase in basal tone. Following stabilization of this enhanced level .of contractile activity, incremental increases in the concentration of test compound or vehicle are introduced into the tissue bath. Contractile activity is measured for each compoundor vehicle concentration during the last minute of a 30 minute challenge.
The isometric force developed by the bladder strips is measured using a […] to elicit 50% inhibition of pre-drug contractile activity (IC50 concentration) and is calculated from this concentra-tion-response curve.

For series [2], the system named is Aorta Tissue. The series can be described thus: Smooth muscle (aorta) relaxing activity: inhibition of KCl-evoked contracture of isolated rat thoracic aorta rings. It counts as cell-based, Sprague-Dawley rats. The following applies: 30-35 mM KCl contracture, 50% inhibition of pre-drug contractile force. From the text: The smooth muscle (aorta) relaxing activity of the compounds of this invention was established in accordance with standard pharmaceutically accepted test procedures with representative compounds as follows:
Male Sprague-Dawley rats (150-200 g) are rendered unconscious by CO2 asphyxiation and then euthanized by cervical dislocation. The thoracic aorta is removed into warm (37 deg.C.) physiological salt solution (PSS) of the following composition (mM): NaCl; 118.4; KCl, 4.7; CaCl2, 2.5; MgSO4.7H2O, 1.2; NaHCO3, 24.9; KH2PO4, 1.2; glucose, 11.1; EDTA, 0.023; gassed with 95% O2/5% CO2; pH 7.4. The aorta is cleaned of fat and loose adventitia and cut into rings 3-4 mm in width. The rings are subsequently suspended between two stainless steel wire tissue holders in a 10 ml tissue bath. One wire tissue holder is attached to a fixed hook while the other is attached to an isometric force transducer. Resting tension is set at 1 g. The tissues are to recover for a period of 60 mins. prior to beginning the experiment. Tissues are challenged with PSS containing 25 mM KCl to elicit a contracture. The tissues are then washed repeatedly with fresh PSS over a period of 30 mins. and allowed to recover to baseline tension. PSS containing 30-35 mM KCl is then introduced into the tissue bath to evoke a contracture that is allowed to stabilize for not less than 45 minutes. (Other stimuli such as norepine-phrine, PGF2a, histamine, angiotensin II, endothelin or PSS containing 80 mM KCl may also be used to evoke a contracture as necessary). Increasing concentrations of test compound or vehicle are then added to the tissue bath in a cumulative fashion.
Isometric force development by the aortic rings is measured using a force transducer and recorded on a polygraph. The percentage inhibition of contractile force evoked by each concentration of a given test compound is used to generate a concentration-response curve. The concentration of test compound required to elicit 50% inhibition of pre-drug contractile force (IC50 concentration) is calculated from this dose-response curve. (Log concentration versus response curves are approximately linear between 20% and 80% of the maximum response. As such, the IC50 concentration of the drug is determined by linear regression analysis (where x=log concentration and y=% inhibition) of the data points in the 20% to 80% region of the curve]. The maximum percentage inhibition of contractile force evoked by a test compound is also recorded for concentrations of test compound < or = to 30 μM. Data collected from 2 animals are averaged for primary screens.

For `COc1ccc(-c2c(N[C@H](C)c3ccccc3)c(=O)c2=O)cc1` [Example 6, (−)-3-(4-Methoxy-phenyl)-4-((R)-1-phenyl-ethylamino)-cyclobut-3-ene-1,2-dione], the melting point (as a rule, the temperature, or range, at which the solid turns liquid) was in the range of 158.7 to 160.1 °C. Further, the IC50 – broadly, the concentration needed to halve the response being measured – in series [1] amounted to 26.9 µM.

Regarding `COc1ccc(-c2c(NC(C)(C)Cc3ccccc3)c(=O)c2=O)cc1` [Example 1, 3-(1,1-Dimethyl-2-phenyl-ethylamino)-4-(4-methoxy-phenyl)-cyclobut-3-ene-1,2-dione], the melting point is 150 to 151 °C. In series [2], this compound had an IC50 of 3.25 ± 0.35 µM. For the same compound, in series [1], the half-inhibitory concentration (IC50) worked out at 1.2 µM and the “Ratio Aorta IC50 / Bladder IC50” value was 2.71.

`CC(Nc1c(-c2ccc(Br)cc2)c(=O)c1=O)C(C)(C)C` (stereo not drawn) [Example 22, 3-(4-Bromo-phenyl)-4-(1,2,2-trimethyl-propylamino)-cyclobut-3-ene-1,2-dione] had a melting point of 210.6 to 211.3 °C. For the same compound, the IC50 in series [1] came out at 25.7 µM.

For the compound `CCC(C)(C)Nc1c(-c2ccc(C(F)(F)F)cc2)c(=O)c1=O` [Example 11, 4-(4Trifluoromethyl-phenyl)-3-(1,1-dimethyl-propylamino)-cyclobut-3-ene-1,2-dione], the melting point was 115.4 to 119 °C (dec.). Also, in series [1], the inhibition (as a rule, the relative decrease from the control value, in per cent) at 30 µM is 34.2%.

As to `CC(=O)C(c1ccc(C(F)(F)F)cc1)c1c(NC(C)C(C)(C)C)c(=O)c1=O` (stereo not drawn) [Example 21, 3-[2-Oxo-1-(4-trifluoromethyl-phenyl)-propyl]-4-(1,2,2-trimethyl-propylamino)-cyclobut-3-ene-1,2-dione], the IC50 in series [1] worked out at 16.2 µM.

`CC(Nc1c(/C=C/c2ccc(Br)cc2)c(=O)c1=O)C(C)(C)C` (stereo not drawn) [Example 26, 3-[(E)-2-(4-Bromo-phenyl)-vinyl]-4-(1,2,2-trimethyl-propylamino)-cyclobut-3-ene-1,2-dione]: in series [1], the inhibition at 30 µM was 15.6%.

As to `COc1ccc(-c2c(NC(C)C(C)(C)C)c(=O)c2=O)cc1` (stereo not drawn) [Example 4, 3-(4-Methoxy-phenyl)-4-(1,2,2-trimethyl-propylamino)-cyclobut-3-ene-1,2-dione], the melting point fell in the range of 179 to 181 °C. The same compound had an IC50 in series [2] of 24.2 ± 6.3 µM. In series [1], the IC50 came out at 9.51 µM and the “Ratio Aorta IC50 / Bladder IC50” value was found to be 2.56.

Take `COc1ccc(-c2c(NCCc3cccc(C(F)(F)F)c3)c(=O)c2=O)cc1` [Example 5, 3-(4-Methoxy-phenyl)-4-[2-(3-trifluoromethyl-phenyl)-ethylamino]-cyclobut-3-ene-1,2-dione]: the melting point lay in the range of 220.2 to 222.3 °C. For the same compound, the inhibition at 30 µM in series [1] was found to be 9.75%.

For the compound `COc1ccc(-c2c(NCCc3ccc(C(C)(C)C)cc3)c(=O)c2=O)cc1` [Example 8, 3-[2-(4-tert-Butyl-phenyl)-ethylamino]-4-(4-methoxy-phenyl)-cyclobut-3-ene-1,2-dione], the melting point is 258.1 to 260.2 °C. Also, the IC50 in series [1] is 11.2 µM.

As to `COc1ccc(C(C(C)=O)c2c(N(C(=O)OC(C)(C)C)C(C)C(C)(C)C)c(=O)c2=O)cc1` (stereo not drawn) [Example 24], the IC50 in series [1] was found to be 15.9 µM.

Turning to `COc1ccc(-c2c(N(C)C(C)C)c(=O)c2=O)cc1` [Example 3, 3-(Isopropyl-methyl-amino)-4-(4-methoxy-phenyl)-cyclobut-3-ene-1,2-dione], the melting point was in the range of 109 to 115 °C. In series [2], this compound had an IC50 of 46.2 ± 7.8 µM. In series [1], the IC50 worked out at 12 µM and the “Ratio Aorta IC50 / Bladder IC50” value is 3.85.

As to `COc1ccc(-c2c(NCC(C)c3ccccc3)c(=O)c2=O)cc1` (stereo not drawn) [Example 7, 3-(4-Methoxy-phenyl)-4-(2-phenyl-propylamino)-cyclobut-3-ene-1,2-dione], the melting point was 215.4 to 216.2 °C. Moreover, the inhibition at 30 µM in series [1] was 7.4%.

Consider `CC(Nc1c(/C=C/c2ccc(C#N)cc2)c(=O)c1=O)C(C)(C)C` (stereo not drawn) [Example 27, 4-{(E)-2-[3,4-Dioxo-2-(1,2,2-trimethyl-propylamino)-cyclobut-1-enyl]-vinyl}-benzonitrile], for which the melting point lay within 240.2 to 241 °C. Further, in series [1], the IC50 turned out to be 2.94 µM.

Take “3-(1,1-Dimethyl-2-phenyl-ethylamino)-4-(3-methoxy-phenyl)-cyclobut-3-ene-1,2-dione [Example 25]”: in series [1], the “Bladder Tissue, I = percent inhibition of contractile activity” value is on record as 1 = 30.35%.

As for `CCC(C)(C)Nc1c(-c2ccc(OC)cc2)c(=O)c1=O` [Example 2, 3-(1,1-Dimethyl-propylamino)-4-(4-methoxy-phenyl)-cyclobut-3-ene-1,2-dione], the melting point lay within 133 to 135 °C. Also, in series [2], the IC50 was 37.6 ± 6.05 µM. In series [1], the IC50 is 2.5 µM and the “Ratio Aorta IC50 / Bladder IC50” value was found to be 15.1.

With `CC(Nc1c(-c2ccc(C#N)cc2)c(=O)c1=O)C(C)(C)C` (stereo not drawn) [Example 9, 4-[3,4-Dioxo-2-(1,2,2-trimethyl-propylamino)-cyclobut-1-enyl]benzonitrile], the inhibition at 30 µM in series [1] stood at 27.2%.

For `CCC(C)(C)Nc1c(-c2cccnc2)c(=O)c1=O.Cl` [Example 12, 3-(1,1-Dimethyl-propylamino)-4-(pyridin-3-yl)-cyclobut-3-ene-1,2-dione Hydrochloride], the melting point was 152 to 155.9 °C (dec.). Further, the inhibition at 30 µM in series [1] was determined as 26%.

For `COc1ccc(Cc2c(NC(C)C(C)(C)C)c(=O)c2=O)cc1.COc1ccc(Cc2c(NC(C)C(C)(C)C)c(=O)c2=O)cc1.COc1ccc(Cc2c(NC(C)C(C)(C)C)c(=O)c2=O)cc1.COc1ccc(Cc2c(NC(C)C(C)(C)C)c(=O)c2=O)cc1.O` (stereo not drawn) [Example 23, 3-(4-Methoxy-benzyl)-4-(1,2,2-trimethyl-propylamino)-cyclobut-3-ene-1,2-dione One-quarter Hydrate], the “Bladder Tissue, I = percent inhibition of contractile activity” value in series [1] is reported as 1 = 10.2%.

Consider `CC(Nc1c(-c2ccc(C(F)(F)F)cc2)c(=O)c1=O)C(C)(C)C` (stereo not drawn) [Example 10, 3-(4-Trifluoromethyl-phenyl)-4-(1,2,2-trimethyl-propylamino)-cyclobut-3-ene-1,2-dione], for which the IC50 in series [1] worked out at 15.6 µM.
